Data: ChEMBL document CHEMBL1153888, “Targeted intracellular protein degradation induced by a small molecule: En route to chemical proteomics” (Bioorg Med Chem Lett, 2008)
Calls of active or inactive are those of the source. No cut-off for these calls is given here.

Experiments:
[1] = tested on: HeLa; assay: Inhibition of intracellular protein degradation in human HeLa cells expressing androgen receptor assessed as effect on total AR protein levels at 10 uM after 7 hrs by Western blot in presence of epoxomicin; assay type: functional, cell-based
[2] = tested on: HeLa; assay: Induction of intracellular protein degradation in human HeLa cells expressing androgen receptor assessed as decrease in total AR protein levels at 10 uM after 7 hrs by Western blot; assay type: functional, cell-based
[3] = molecular target: E3 ubiquitin-protein ligase Mdm2 (Homo sapiens, UniProt Q00987); assay: Binding affinity to MDM2
Chain of E3 ubiquitin-protein ligase Mdm2 (Q00987 whole entry): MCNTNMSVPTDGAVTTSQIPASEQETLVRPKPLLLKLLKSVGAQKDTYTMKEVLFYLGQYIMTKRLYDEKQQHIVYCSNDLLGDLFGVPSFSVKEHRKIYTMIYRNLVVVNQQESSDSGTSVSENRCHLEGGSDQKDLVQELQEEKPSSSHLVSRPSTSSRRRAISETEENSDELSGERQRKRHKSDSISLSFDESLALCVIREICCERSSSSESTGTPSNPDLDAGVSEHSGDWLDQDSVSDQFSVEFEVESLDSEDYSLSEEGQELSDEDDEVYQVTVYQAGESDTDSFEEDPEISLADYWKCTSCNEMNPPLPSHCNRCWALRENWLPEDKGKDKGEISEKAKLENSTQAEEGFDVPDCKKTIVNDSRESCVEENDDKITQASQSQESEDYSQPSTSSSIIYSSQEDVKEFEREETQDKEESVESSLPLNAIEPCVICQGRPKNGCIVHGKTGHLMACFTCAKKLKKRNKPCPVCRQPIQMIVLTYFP

Row | IC50 [3] | Structure (SMILES) | Activity [1] | Activity [2]
1 | – | COc1ccc(C2=N[C@H](c3ccc(Cl)cc3)[C@H](c3ccc(Cl)cc3)N2C(=O)N2CCN(CC(=O)NCCOCCOCCOCC(=O)Nc3ccc(OC[C@](C)(O)C(=O)Nc4ccc([N+](=O)[O-])c(C(F)(F)F)c4)cc3)C(=O)C2)c(OC(C)C)c1 | Active | Active
2 | 90 nM | COc1ccc(C2=NC(c3ccc(Cl)cc3)C(c3ccc(Cl)cc3)N2)c(OC(C)C)c1 (stereo not drawn) | – | –
